One test concerns PfCRT. The test is described as follows: Influx of VF-6 via PfCRT into the oocyte, solutes tested as potential co-substrates. Format: cell-based, Plasmodium falciparum. The note with it: X marks the solute. More on the design: key: X: Compounds that have been tested as potential co-substrates but are not required for influx of VF-6 via PfCRT into the oocyte.
Another test addresses PfCRT^3D7 (Plasmodium falciparum, UniProt Q8IBZ9). Nature of the test: cell-based. As for the experimental part: (§1) The characterisation of [^3H]VF-6 transport via 23 different field and laboratory-derived isoforms of PfCRT was undertaken with oocytes two days post-cRNA-injection (Figs. 3a–j, 4; Supplementary Fig. 2). The oocytes were injected with 25 nL of ND96 buffer (pH 5.5) supplemented with [^3H]VF-6 and unlabelled VF-6 to achieve estimated intracellular concentrations of 1.4 and 200 μM, respectively. Ten oocytes that had resealed at the injection site were transferred to a 5 mL polystyrene round bottom tube (In Vitro Technologies) and washed with 3.5 mL of ND96 buffer before being transferred to separate wells of a white 96-well plate (PerkinElmer). This treatment served to establish the amount of radioactivity within the oocytes immediately prior to the commencement of the transport assay. Another 10 resealed oocytes were transferred to a 5 mL tube and washed with 3.5 mL of ND96 buffer. […] The assay was terminated by removing the reaction buffer with a pipette and washing the oocytes twice with 3.5 mL of ice-cold ND96 buffer. Each oocyte was transferred to a separate well of a white 96-well plate. The oocytes were lysed by the addition of 20 μL of 10% (w/v) SDS and overnight incubation at room temperature. The lysed oocyte was then combined with 150 μL of MicroScint-40 microscintillant (PerkinElmer), the plate covered with a TopSeal-A (PerkinElmer), and the radioactivity measured with a MicroBeta^2 microplate liquid scintillation analyser (PerkinElmer). VF-6 transport was calculated by subtracting the amount of radioactivity (measured in counts per minute) present within the oocytes at the end of the incubation from that measured in the oocytes sampled immediately before the commencement of the assay. The pH-dependence of transport (Fig. 3c) was determined by injecting the oocytes with [^3H]VF-6 suspended in 25 nL ND96 buffer adjusted to pH 5.0, 5.5, 6.0 or 7.0, which corresponded to the injection of 2.5–250 fmol of H^+. The dependence of [^3H]VF-6 transport on Na^+ or Cl^− was examined by injecting the oocytes with [^3H]VF-6 suspended in the control ND96 buffer (pH 5.5) or a version of this buffer that lacked either Na^+ or Cl^− (Supplementary Fig. 2). […] The dependence of peptide transport on Ca^2+ was determined by injecting the oocytes with [^3H]VF-6 suspended in ND96 buffers that contained different concentrations of Ca^2+ (0–5 mM; Supplementary Fig. 2). […] The dependence of PfCRT-mediated transport on the membrane potential was examined by using (1) Na^+ ionophore III in conjunction with the Na^+ gradients listed in Supplementary Data 7 and (2) Cl^− ionophore III in conjunction with the Cl^− gradients listed in Supplementary Data 7 to clamp the membrane potential of the oocyte from −80 to +80 mV. […] The kinetic parameters for VF-6 transport via different isoforms of PfCRT (Figs. 3e and 4a) were determined in SigmaPlot Windows Version 11.0 by a least-squares fit of the Michaelis–Menten equation to the data.
(§2) A subset of assays measured the ability of solutes known to interact with PfCRT to either cis-inhibit, trans-inhibit or trans-stimulate [^3H]VF-6 transport. These experiments involved adding these solutes to either the cis- or trans-side of the membrane relative to [^3H]VF-6. […] At least five independent experiments were performed (on different days and using oocytes from different frogs), and within each experiment measurements were made from ten oocytes per treatment.

Another test concerns the target PfCRT^Ecu1110 (Plasmodium falciparum, UniProt Q9N623, A220S/I356L/K76T/N326D). The test is described as follows: cell-based. To be noted: trans-inhibition, treatment 45 mM. The method, then: as §1, §2
Another test deals with PfCRT^Dd2 (Plasmodium falciparum, UniProt Q9N623, A220S/I356T/K76T/M74I/N326S/N75E/Q271E/R371I). Nature of the test: cell-based. The note with it: trans-inhibition, treatment 45 mM. As for the experimental part: as §1, §2
The next test addresses T1, PfNT1 (Plasmodium falciparum, UniProt Q8IDM6).
T1 construct: expressed in transfected cells; host or cells: Xenopus laevis oocytes (stage V-VI), cRNA-injected
Nature of the test: [3H]VF-6 transport (efflux) from injected Xenopus oocytes. The class given is cell-based. The note with it: trans-inhibition, treatment 45 mM.

“And” between values parts separate entries of the source, which are not always exact repeats. Equal entries are not always repeated.

Chain of PfCRT^Ecu1110 (Q9N623 whole entry A220S/I356L/K76T/N326D): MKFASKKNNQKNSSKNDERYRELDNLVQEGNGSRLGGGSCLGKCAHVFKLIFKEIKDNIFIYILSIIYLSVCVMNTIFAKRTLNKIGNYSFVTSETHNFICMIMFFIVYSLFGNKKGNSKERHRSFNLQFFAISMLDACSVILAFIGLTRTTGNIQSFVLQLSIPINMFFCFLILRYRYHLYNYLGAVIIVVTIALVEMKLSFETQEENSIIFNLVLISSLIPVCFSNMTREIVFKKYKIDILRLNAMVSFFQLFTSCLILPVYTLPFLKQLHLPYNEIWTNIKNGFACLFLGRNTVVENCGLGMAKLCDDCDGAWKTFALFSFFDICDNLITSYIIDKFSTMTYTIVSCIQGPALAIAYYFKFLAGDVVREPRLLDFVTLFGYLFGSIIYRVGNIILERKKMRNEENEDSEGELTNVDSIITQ
T1 sequence (Q8IDM6 whole entry): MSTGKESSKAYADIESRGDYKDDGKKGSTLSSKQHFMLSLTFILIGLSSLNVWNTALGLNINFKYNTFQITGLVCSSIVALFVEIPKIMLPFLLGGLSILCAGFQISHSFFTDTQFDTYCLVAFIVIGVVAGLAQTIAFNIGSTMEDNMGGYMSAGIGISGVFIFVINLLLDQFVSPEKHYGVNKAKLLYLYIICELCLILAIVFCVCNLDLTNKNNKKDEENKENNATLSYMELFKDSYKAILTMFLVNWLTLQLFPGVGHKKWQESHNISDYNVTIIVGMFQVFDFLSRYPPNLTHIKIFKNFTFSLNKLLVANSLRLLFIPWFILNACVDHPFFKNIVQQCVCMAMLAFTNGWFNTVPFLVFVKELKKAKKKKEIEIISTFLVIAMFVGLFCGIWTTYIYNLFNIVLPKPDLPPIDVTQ
Chain of PfCRT^Dd2 (Q9N623 whole entry A220S/I356T/K76T/M74I/N326S/N75E/Q271E/R371I): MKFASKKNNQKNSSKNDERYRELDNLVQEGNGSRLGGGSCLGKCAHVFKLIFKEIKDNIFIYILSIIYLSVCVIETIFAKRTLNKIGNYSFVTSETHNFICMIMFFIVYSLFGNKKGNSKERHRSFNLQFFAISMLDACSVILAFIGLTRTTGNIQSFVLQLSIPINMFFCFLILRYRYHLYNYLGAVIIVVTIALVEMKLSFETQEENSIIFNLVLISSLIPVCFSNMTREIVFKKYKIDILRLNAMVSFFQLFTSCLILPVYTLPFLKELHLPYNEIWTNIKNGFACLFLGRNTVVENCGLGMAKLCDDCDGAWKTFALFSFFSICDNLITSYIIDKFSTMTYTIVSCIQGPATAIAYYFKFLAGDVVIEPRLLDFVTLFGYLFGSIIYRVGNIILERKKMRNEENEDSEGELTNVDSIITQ
Chain of PfCRT^3D7 (Q8IBZ9 59-398): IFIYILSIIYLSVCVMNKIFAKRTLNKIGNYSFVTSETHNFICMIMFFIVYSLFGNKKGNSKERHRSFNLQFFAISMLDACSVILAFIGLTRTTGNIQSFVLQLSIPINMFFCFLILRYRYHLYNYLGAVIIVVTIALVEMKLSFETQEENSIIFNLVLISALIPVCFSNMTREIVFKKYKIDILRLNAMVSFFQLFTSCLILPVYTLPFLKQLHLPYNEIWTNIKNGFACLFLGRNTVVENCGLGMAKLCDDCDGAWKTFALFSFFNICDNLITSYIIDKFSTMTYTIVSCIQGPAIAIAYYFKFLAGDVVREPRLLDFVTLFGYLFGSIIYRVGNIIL

As to `CSCC[C@H](N)C(=O)O` [L-methionine], the “Compounds that have been tested as potential co-substrates but are not required for influx of VF-6 via PfCRT into the oocyte” value in the test with PfCRT was “X”.

With `CC(C)[C@H](N)C(=O)O` [L-valine], the “Compounds that have been tested as potential co-substrates but are not required for influx of VF-6 via PfCRT into the oocyte” value in the test on PfCRT is given as “X”.

`CC[C@H](C)[C@H](N)C(=O)O` [L-isoleucine]: in the test with PfCRT, the “Compounds that have been tested as potential co-substrates but are not required for influx of VF-6 via PfCRT into the oocyte” value was “X”.

Regarding `N[C@@H](Cc1ccccc1)C(=O)O` [L-phenylalanine], the “Compounds that have been tested as potential co-substrates but are not required for influx of VF-6 via PfCRT into the oocyte” value in the test on PfCRT is recorded as “X”.

On to `CC(C)C[C@H](N)C(=O)O` [L-leucine], for which the “Compounds that have been tested as potential co-substrates but are not required for influx of VF-6 via PfCRT into the oocyte” value in the test on PfCRT is recorded as “X”.

As to `N[C@@H](CS)C(=O)O` [L-cysteine], the “Compounds that have been tested as potential co-substrates but are not required for influx of VF-6 via PfCRT into the oocyte” value in the test on PfCRT is recorded as “X”.

For `N[C@@H](Cc1c[nH]c2ccccc12)C(=O)O` [L-tryptophan], the “Compounds that have been tested as potential co-substrates but are not required for influx of VF-6 via PfCRT into the oocyte” value in the test with PfCRT is given as “X”.

With `N[C@@H](CO)C(=O)O` [L-serine], the “Compounds that have been tested as potential co-substrates but are not required for influx of VF-6 via PfCRT into the oocyte” value in the test with PfCRT is “X”.

Turning to `N[C@@H](Cc1ccc(O)cc1)C(=O)O` [L-tyrosine], the “Compounds that have been tested as potential co-substrates but are not required for influx of VF-6 via PfCRT into the oocyte” value with PfCRT was “X”.

Take `NC(=O)C[C@H](N)C(=O)O` [L-asparagine]: the “Compounds that have been tested as potential co-substrates but are not required for influx of VF-6 via PfCRT into the oocyte” value with PfCRT is listed as “X”.

As for `NCCCC[C@H](N)C(=O)O` [L-lysine], the “Compounds that have been tested as potential co-substrates but are not required for influx of VF-6 via PfCRT into the oocyte” value in the test on PfCRT is on record as “X”.

Consider `N[C@@H](CCC(=O)O)C(=O)O` [L-glutamic acid], for which the “Compounds that have been tested as potential co-substrates but are not required for influx of VF-6 via PfCRT into the oocyte” value with PfCRT is reported as “X”.

`C[C@@H](O)[C@H](N)C(=O)O` [L-threonine]: the “Compounds that have been tested as potential co-substrates but are not required for influx of VF-6 via PfCRT into the oocyte” value in the test with PfCRT was “X”.

Consider `N=C(N)NCCC[C@H](N)C(=O)O` [L-arginine], for which the “Compounds that have been tested as potential co-substrates but are not required for influx of VF-6 via PfCRT into the oocyte” value in the test with PfCRT is “X”.

Consider DPVN [VF-6-derived peptide], for which the “[3H]VF-6 transport, PfCRT3D7 (% PfCRT3D7 control)” value on PfCRT^3D7 was 26.43 % PfCRT3D7 control and 27.43 % PfCRT3D7 control and 23.23 % PfCRT3D7 control and 20.32 % PfCRT3D7 control and 20.85 % PfCRT3D7 control. Also, the “[3H]VF-6 transport, PfCRTEcu1110 (% PfCRT3D7 control)” value on PfCRT^Ecu1110 (Experiment 1) is 9.56 % PfCRT3D7 control; at PfCRT^Ecu1110 (Experiment 2), 9.46 % PfCRT3D7 control; on PfCRT^Ecu1110 (Experiment 3), 8.39 % PfCRT3D7 control; at PfCRT^Ecu1110 (Experiment 4), 9.45 % PfCRT3D7 control; on PfCRT^Ecu1110 (Experiment 5), 9.93 % PfCRT3D7 control. For the same compound, the “[3H]VF-6 transport, PfCRTDd2 (% PfCRT3D7 control)” value amounted to 7.83 % PfCRT3D7 control at PfCRT^Dd2 (Experiment 1); 7.93 % PfCRT3D7 control on PfCRT^Dd2 (Experiment 2); 7.34 % PfCRT3D7 control on PfCRT^Dd2 (Experiment 3); 7.75 % PfCRT3D7 control on PfCRT^Dd2 (Experiment 4); 8.53 % PfCRT3D7 control on PfCRT^Dd2 (Experiment 5). In addition, the “[3H]VF-6 transport, PfNT1 (% PfCRT3D7 control)” value on PfNT1 (Experiment 1) is reported as 3.26 % PfCRT3D7 control; on PfNT1 (Experiment 2) it was 3.27 % PfCRT3D7 control; on PfNT1 (Experiment 3), 3.74 % PfCRT3D7 control; at PfNT1 (Experiment 4), 3.42 % PfCRT3D7 control; on PfNT1 (Experiment 5), 3.57 % PfCRT3D7 control.

Consider `C[C@H](N)C(=O)O` [L-alanine], for which the “Compounds that have been tested as potential co-substrates but are not required for influx of VF-6 via PfCRT into the oocyte” value in the test on PfCRT was “X”.

Consider `N[C@@H](Cc1c[nH]cn1)C(=O)O` [L-histidine], for which the “Compounds that have been tested as potential co-substrates but are not required for influx of VF-6 via PfCRT into the oocyte” value with PfCRT is recorded as “X”.

For the compound `NC(=O)CC[C@H](N)C(=O)O` [L-glutamine], the “Compounds that have been tested as potential co-substrates but are not required for influx of VF-6 via PfCRT into the oocyte” value in the test on PfCRT is recorded as “X”.

Values taken from PMC7413254 (Nature Communications, 2020).
